Results on 33 molecules are retold here after patent EP4428121A1, “MODULATORS OF SORTILIN ACTIVITY” (Vesper Bio Aps, priority 2023, dated 2024).

As a reminder, the Kd is a measure of binding affinity in units of concentration. A higher Kd goes with weaker binding.

The target in this experiment is T1, Human (6-His)Sortilin (Homo sapiens, UniProt Q99523).
T1 construct: purchased RnD Systems
T1 sequence (Q99523 78-755 limits assumed): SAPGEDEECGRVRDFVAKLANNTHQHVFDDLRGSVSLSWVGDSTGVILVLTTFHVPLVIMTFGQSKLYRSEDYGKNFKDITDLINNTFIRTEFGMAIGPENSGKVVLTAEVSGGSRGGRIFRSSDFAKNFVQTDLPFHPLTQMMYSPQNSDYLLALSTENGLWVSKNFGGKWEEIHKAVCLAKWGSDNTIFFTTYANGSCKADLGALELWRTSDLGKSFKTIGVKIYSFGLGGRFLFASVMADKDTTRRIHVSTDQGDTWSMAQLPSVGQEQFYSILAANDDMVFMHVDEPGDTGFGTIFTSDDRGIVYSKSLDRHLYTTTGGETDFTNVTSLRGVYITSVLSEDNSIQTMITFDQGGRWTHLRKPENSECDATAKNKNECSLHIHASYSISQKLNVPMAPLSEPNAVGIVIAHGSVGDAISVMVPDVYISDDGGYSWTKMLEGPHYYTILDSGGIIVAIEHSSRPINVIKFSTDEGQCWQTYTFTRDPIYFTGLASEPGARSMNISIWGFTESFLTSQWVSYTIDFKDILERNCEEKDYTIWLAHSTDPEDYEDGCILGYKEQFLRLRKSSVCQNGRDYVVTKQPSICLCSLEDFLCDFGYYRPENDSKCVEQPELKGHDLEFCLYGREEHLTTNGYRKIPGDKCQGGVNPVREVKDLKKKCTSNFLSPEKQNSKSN
In words: Human Sortilin GCI (Grating-Coupled Interferometry) binding assay. Particulars: Creoptix WAVE-RAPID, single concentration (usually 1 µM, 10 µM or 100 µM), immobilised Human (6-His)Sortilin, 1:1 kinetic binding model.
Turning to `CC(C)(C)CCC(Nc1cnc2ccccc2c1)c1nn[nH]n1` (racemic) [Example 33, [4,4-dimethyl-1-(2H-tetraazol-5-yl)pentyl]-3-quinolylamine], the affinity, expressed as Kd, was 3.43 µM.
To `CC(C)(C)CCC(Nc1ccc2ccccc2n1)c1nn[nH]n1` (racemic) [Example 34, [4,4-dimethyl-1-(2H-tetraazol-5-yl)pentyl]-2-quinolylamine] belongs 1.83 µM; to `CC(C)(C)CCC(Nc1cccc2ccccc12)c1nn[nH]n1` (racemic) [Example 35, [4,4-dimethyl-1-(2H-tetraazol-5-yl)pentyl]-1-naphthylamine], 1.07 µM.
For `CC(C)CCC(Nc1cccc2ccccc12)c1nn[nH]n1` (racemic) [Example 38, [4-methyl-1-(2H-tetraazol-5-yl)pentyl]-1-naphthylamine], the affinity, expressed as Kd, was 8.75 µM.
`CC(C)CC(Nc1ccc2ccccc2n1)c1nn[nH]n1` (racemic) [Example 40, [3-methyl-1-(2H-tetraazol-5-yl)butyl]-2-quinolylamine] had a Kd of 22 µM.
Then `CC(C)CC(Nc1cc2ccccc2cn1)c1nn[nH]n1` (racemic) [Example 42, [3-methyl-1-(2H-tetraazol-5-yl)butyl]-3-isoquinolylamine], with 3.17 µM; and `CC(C)(C)CC(Nc1ccccc1)c1nn[nH]n1` (racemic) [Example 43, N-phenyl[3,3-dimethyl-1-(2H-tetraazol-5-yl)butyl]amine], with 17.7 µM.
Then `CC(C)(C)CC(Nc1ncccn1)c1nn[nH]n1` (racemic) [Example 45, N-2-pyrimidinyl[3,3-dimethyl-1-(2H-tetraazol-5-yl)butyl]amine], with 91.1 µM.
On to `CC(C)CC(Nc1cncc2ccccc12)c1nn[nH]n1` (racemic) [Example 46, [3-methyl-1-(2H-tetraazol-5-yl)butyl]-4-isoquinolylamine], for which binding was put at a Kd of 3.78 µM.
Molecule `CC(C)(C)CCC(Nc1ncccn1)c1nn[nH]n1` (racemic) [Example 47, N-2-pyrimidinyl[4,4-dimethyl-1-(2H-tetraazol-5-yl)pentyl]amine] gave a dissociation constant Kd of 7.82 µM. Compared with the last molecule, the Kd is about 2.1-fold higher.
With `CC(C)(C)CC(Nc1cncc2ccccc12)c1nn[nH]n1` (racemic) [Example 48, [3,3-dimethyl-1-(2H-tetraazol-5-yl)butyl]-4-isoquinolylamine], binding was put at a Kd of 2.47 µM.
To `CC(C)CC(Nc1cncnc1)c1nn[nH]n1` (racemic) [Example 49, [3-methyl-1-(2H-tetraazol-5-yl)butyl]-5-pyrimidinylamine] belongs 98 µM.
To `CC(C)(C)CC(Nc1cncnc1)c1nn[nH]n1` (racemic) [Example 50, N-5-pyrimidinyl[3,3-dimethyl-1-(2H-tetraazol-5-yl)butyl]amine] belongs 28 µM.
For the molecule `Cn1ccc2cc(NC(CC(C)(C)C)c3nn[nH]n3)cnc21` (racemic) [Example 52, [3,3-dimethyl-1-(2H-tetraazol-5-yl)butyl](1-methyl-1H-1,7-diazainden-5-yl)amine], binding was characterised by a dissociation constant (Kd) of 3.25 µM. Compared with the last molecule, the Kd is about 8.6-fold lower.
To `Cn1ccc2cc(NC(CCC(C)(C)C)c3nn[nH]n3)cnc21` (racemic) [Example 53, [4,4-dimethyl-1-(2H-tetraazol-5-yl)pentyl](1-methyl-1H-1,7-diazainden-5-yl)amine] belongs 0.735 µM.
Then `CC(C)CCC(Nc1cnc2ccccc2c1)c1nn[nH]n1` (racemic) [Example 55, [4-methyl-1-(2H-tetraazol-5-yl)pentyl]-3-quinolylamine], with 10.5 µM; and `CC(C)CC(Nc1cnc2ccccc2c1)c1nn[nH]n1` (racemic) [Example 56, [3-methyl-1-(2H-tetraazol-5-yl)butyl]-3-quinolylamine], with 44.9 µM; and `CC(C)CCC(Nc1ncccn1)c1nn[nH]n1` (racemic) [Example 57, N-2-pyrimidinyl[4-methyl-1-(2H-tetraazol-5-yl)pentyl]amine], with 123 µM.
With `CC(C)(C)CC(Nc1cc2ccccc2cn1)c1nn[nH]n1` (racemic) [Example 60, [3,3-dimethyl-1-(2H-tetraazol-5-yl)butyl]-3-isoquinolylamine], binding was characterised by a dissociation constant (Kd) of 5.9 µM.
Then `CC(C)(C)CC(Nc1ccccn1)c1nn[nH]n1` (racemic) [Example 61, N-2-pyridyl[3,3-dimethyl-1-(2H-tetraazol-5-yl)butyl]amine], with 60 µM.
On to `CC(C)(C)CC(Nc1cccnc1)c1nn[nH]n1` (racemic) [Example 62, N-3-pyridyl[3,3-dimethyl-1-(2H-tetraazol-5-yl)butyl]amine], for which binding was characterised by a dissociation constant (Kd) of 32.1 µM.
Then `CC(C)CCC(Nc1cncc2ccccc12)c1nn[nH]n1` (racemic) [Example 64, [4-methyl-1-(2H-tetraazol-5-yl)pentyl]-4-isoquinolylamine], with 8.71 µM; and `CC(C)CC(Nc1ncccn1)c1nn[nH]n1` (racemic) [Example 65, [3-methyl-1-(2H-tetraazol-5-yl)butyl]-2-pyrimidinylamine], with 98.6 µM.
Then `CC(C)CC(Nc1ccccn1)c1nn[nH]n1` (racemic) [Example 66, [3-methyl-1-(2H-tetraazol-5-yl)butyl]-2-pyridylamine], with 179 µM.
Regarding `CC(C)(C)CC(Nc1ncnc2ccccc12)c1nn[nH]n1` (racemic) [Example 77, [3,3-dimethyl-1-(2H-tetraazol-5-yl)butyl]-4-quinazolinylamine], the affinity, expressed as Kd, was 5.41 µM. This Kd is about 33-fold lower than that of the molecule before.
To `COc1ccc2ncnc(NC(CCC(C)(C)C)c3nn[nH]n3)c2c1` (racemic) [Example 78, [4,4-dimethyl-1-(2H-tetraazol-5-yl)pentyl](6-methoxy-4-quinazolinyl)amine] belongs 1.49 µM; to `COc1ccc2ncnc(NC(CCC(C)C)c3nn[nH]n3)c2c1` (racemic) [Example 79, [4-methyl-1-(2H-tetraazol-5-yl)pentyl](6-methoxy-4-quinazolinyl)amine], 19.5 µM; to `Cc1ccc2ncnc(NC(CCC(C)C)c3nn[nH]n3)c2c1` (racemic) [Example 80, [4-methyl-1-(2H-tetraazol-5-yl)pentyl](6-methyl-4-quinazolinyl)amine], 3.88 µM.
With `CC(C)CCC(Nc1ncnc2ccc(F)cc12)c1nn[nH]n1` (racemic) [Example 81, [4-methyl-1-(2H-tetraazol-5-yl)pentyl](6-fluoro-4-quinazolinyl)amine], the Kd was determined as 2.22 µM.
For the molecule `CC(C)(C)CCC(Nc1ncnc2cc(F)ccc12)c1nn[nH]n1` (racemic) [Example 82, [4,4-dimethyl-1-(2H-tetraazol-5-yl)pentyl](7-fluoro-4-quinazolinyl)amine], the affinity, expressed as Kd, was 0.316 µM.
Turning to `Cc1ccc2ncnc(NC(CCC(C)(C)C)c3nn[nH]n3)c2c1` (racemic) [Example 83, [4,4-dimethyl-1-(2H-tetraazol-5-yl)pentyl](6-methyl-4-quinazolinyl)amine], the dissociation constant (Kd) is 0.251 µM.
Then `Cc1ccc2c(NC(CCC(C)(C)C)c3nn[nH]n3)ncnc2c1` (racemic) [Example 84, [4,4-dimethyl-1-(2H-tetraazol-5-yl)pentyl](7-methyl-4-quinazolinyl)amine], with 0.461 µM; and `CC(C)(C)CCC(Nc1ncnc2ccc(C(F)(F)F)cc12)c1nn[nH]n1` (racemic) [Example 86, [4,4-dimethyl-1-(2H-tetraazol-5-yl)pentyl][6-(trifluoromethyl)-4-quinazolinyl]amine], with 1.49 µM.
